Source: patent publication US20210238139A1, “MODULATORS OF TRYPTOPHAN CATABOLISM” (E-Therapeutics PLC, priority 2018, published 2021)
Where two headings read alike, the source gives them in different places.

Key:
[1] = molecular target: T1, TDO2 enzyme (Homo sapiens, UniProt P48775); assay: TDO2 enzyme inhibition assay (hTDO2 assay kit, NFK-green); conditions: TDO2 enzyme 50 nM, tryptophan 200 μM, top concentration 30 μM; read-out: TDO2 Biochemical assay IC50
T1 construct: purchased Netherlands Translational Research Center B.V. NTRC-hTDO-1K
T1 sequence (P48775 whole entry): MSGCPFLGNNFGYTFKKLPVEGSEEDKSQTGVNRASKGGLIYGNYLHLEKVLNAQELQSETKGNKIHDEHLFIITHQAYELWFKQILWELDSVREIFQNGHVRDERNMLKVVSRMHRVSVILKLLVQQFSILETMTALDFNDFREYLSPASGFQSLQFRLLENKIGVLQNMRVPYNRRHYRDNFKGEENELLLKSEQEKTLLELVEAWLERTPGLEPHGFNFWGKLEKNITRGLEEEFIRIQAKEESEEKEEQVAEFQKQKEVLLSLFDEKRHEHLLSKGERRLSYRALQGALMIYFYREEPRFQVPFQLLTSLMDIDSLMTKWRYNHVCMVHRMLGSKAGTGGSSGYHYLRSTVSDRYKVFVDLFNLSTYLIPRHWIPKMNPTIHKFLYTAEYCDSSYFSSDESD
Description: The effect of compounds on TDO2 enzymatic activity was assess by use of an hTDO2 assay kit (Netherlands Translational Research Center B.V., Cat #NTRC-hTDO-1K). TDO2 enzyme and tryptophan substrate are diluted in assay buffer. Compounds are tested at 8 consecutive 3-fold dilutions starting from 30 μM. 267 nL of compound is added per well of a 384-well plate followed by addition of 10 μL of assay buffer. TDO2 enzyme is added at a final concentration of 50 nM and pre-incubated for 60 min at room temperature in the dark. Tryptophan substrate solution is then added at final concentration of 200 μM to all wells and the plate incubated for 15 min at RT in the dark. Finally NFK-green reagent is added at ⅕ of total reaction volume and incubated for 4 h at RT in the dark. After incubation fluorescence is measured at Ex405 nm-Em535 nm using EnVision plate reader.
IC50 values are determined using GraphPad Prism software 5.04 for Windows by plotting percent of inhibition against log 10 concentrations of compounds using a four-parametric sigmoidal curve with a variable slope.

[2] = test system: SK-OV-3 cells; assay: Effect of compounds on tryptophan catabolism in SK-OV-3 cell line (inhibition of kynurenine production, LC-MS/MS); format: cell-based; conditions: Homo sapiens, SK-OV-3, 24 h, read-out: IC50 Ranges (ic50 values for inhibition of Kynurenine production)
Procedure, shortened: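 Cells seeded overnight in McCoy's 5A/10% FBS, then switched to DMEM F-12 with 6 mg/mL L-tryptophan; compounds added at 8 3-fold dilutions from 30 μM, in duplicate, 24 h at 37 °C. Supernatant kynurenine measured by LC-MS/MS; ATP-based viability run in parallel; IC50 from % inhibition of Kyn production.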

[3] = SK-OV-3 cell line, 24 h incubation, kynurenine in supernatant by LC-MS/MS

| SMILES | IC50 [1] [nM] | IC50 [2, 3] [nM] | IC50 [2] [nM] |
| --- | --- | --- | --- |
| Cc1ccc(CN(C(=O)Nc2ccc(C#CCN)cc2)C2CCCC2)o1 [Compound 110] | > 30000 | 100 to 500 | – |
| Cc1ccc(C(C)N(C(=O)Nc2ccc(Cl)cc2)C2CCCC2)o1 (racemic) [Compound 185, 3-(4-chlorophenyl)-1-cyclopentyl-1-[1-(5-methyl-2-furyl)ethyl]urea] | > 30000 | < 100 | – |
| Cc1ccc(CN(C(=O)Nc2ccc(-c3cnoc3)cc2)C2CCCC2)o1 [Compound 105, 1-cyclopentyl-3-(4-isoxazol-4-ylphenyl)-1-[(5-methyl-2-furyl)methyl]urea] | > 30000 | 100 to 500 | – |
| Cc1ccc(CN(C(=O)Nc2ccc(C3CN(C(=O)OC(C)(C)C)C3)cc2)C2CCCC2)o1 [Compound 159, tert-butyl 3-[4-[[cyclopentyl-[(5-methyl-2-furyl)methyl]-carbamoyl]amino]phenyl]azetidine-1-carboxylate] | – | – | 1000 to 5000 |
| Cc1ccc(CN(C(=O)Nc2ccc(C#N)cc2)C2CC(F)(F)C2)o1 [Compound 241, 3-(4-cyanophenyl)-1-(3,3-difluorocyclobutyl)-1-[(5-methyl-2-furyl)methyl]urea] | – | 500 to 1000 | – |
| Cc1ccc(CN(C(=O)Nc2ccc(C#CC3CC3)cc2)C2CCCC2)o1 [Compound 107, 1-cyclopentyl-3-[4-(2-cyclopropylethynyl)phenyl]-1-[(5-methyl-2-furyl)methyl]urea] | – | < 100 | – |
| N#Cc1cc(CN(C(=O)Nc2ccc(F)c(F)c2)C2CCCC2)ccc1F [Compound 52, 1-[(3-cyano-4-fluoro-phenyl)methyl]-1-cyclopentyl-3-(3,4-difluorophenyl)urea] | – | < 100 | – |
| O=C(Nc1ccc(C(F)(F)F)cc1)N(Cc1cccs1)C1CCCC1 [Compound 13, 1-cyclopentyl-1-(2-thienylmethyl)-3-[4-(trifluoromethyl)phenyl]urea] | – | 1000 to 5000 | – |
| Cc1ccc(CN(C(=O)Nc2ccc(N3CCCC3=O)cc2)C2CCCC2)o1 [Compound 103, 1-cyclopentyl-1-[(5-methyl-2-furyl)methyl]-3-[4-(2-oxopyrrolidin-1-yl)phenyl]urea] | – | 1000 to 5000 | – |
| CC1(CN(C(=O)Nc2ccccc2)C2CCCC2)CCNCC1 [Compound 85, 1-cyclopentyl-1-[(4-methyl-4-piperidyl)methyl]-3-phenyl-urea] | – | 1000 to 5000 | – |
| N#Cc1ccc(NC(=O)N(Cc2cn3ccncc3n2)C2CCC2)cc1 [Compound 211, 3-(4-cyanophenyl)-1-cyclobutyl-1-(imidazo[1,2-a]pyrazin-2-ylmethyl)urea] | – | > 5000 | – |
| Cc1ccc(CN(C(=O)Nc2ccc(C#N)cc2)[C@H]2C[C@H](F)C2)o1 [Compound 272, 3-(4-cyanophenyl)-1-(3-fluorocyclobutyl)-1-[(5-methyl-2-furyl)methyl]urea] | – | 500 to 1000 | – |
| CC1(CN(C(=O)Nc2ccc(Cl)cc2)C2CCCC2)CCNCC1 [Compound 87, 3-(4-chlorophenyl)-1-cyclopentyl-1-[(4-methyl-4-piperidyl)methyl]urea] | – | > 5000 | – |
| Cc1ccc(CN(C(=O)Nc2ccc(C#N)cc2)C2CCCC2C#N)o1 (centres unmarked) [Compound 219, 1-(2-cyanocyclopentyl)-3-(4-cyanophenyl)-1-[(5-methyl-2-furyl)methyl]urea] | – | 100 to 500 | – |
| Cc1ccc(CN(C(=O)Nc2nc(-c3ccccn3)cs2)C2CCCC2)o1 [Compound 133, 1-cyclopentyl-1-[(5-methyl-2-furyl)methyl]-3-[4-(2-pyridyl)thiazol-2-yl]urea] | – | 100 to 500 | – |
| COc1ccc(NC(=O)N(Cc2cccs2)C2CCCC2)cc1 [Compound 14, 1-cyclopentyl-3-(4-methoxyphenyl)-1-(2-thienylmethyl)urea] | – | > 5000 | – |
| Cc1ccc(CN(C(=O)Nc2ccccc2)C2CCCC2)s1 [Compound 24, 1-cyclopentyl-1-[(5-methyl-2-thienyl)methyl]-3-phenyl-urea] | – | > 5000 | – |
| Cc1ccc(CN(C(=O)N(C)c2ccc(C#CCO)cc2)C2CCC2)o1 [Compound 306, 1-cyclobutyl-3-[4-(3-hydroxyprop-1-ynyl)phenyl]-3-methyl-1-[(5-methyl-2-furyl)methyl]urea] | – | 1000 to 5000 | – |
| CC(c1cccc(C#N)c1)N(C(=O)Nc1ccccc1)C1CCCC1 (racemic) [Compound 186, 1-[1-(3-cyanophenyl)ethyl]-1-cyclopentyl-3-phenyl-urea] | – | 100 to 500 | – |
| COc1ccc(CN(C(=O)Nc2ccc(F)cc2)C2CCCC2)cc1C [Compound 48, 1-cyclopentyl-3-(4-fluorophenyl)-1-[(4-methoxy-3-methyl-phenyl)methyl]urea] | – | 100 to 500 | – |
| Cc1ccc(CN(C(=O)Nc2ccc(C(N)=O)cc2)C2CCCC2)o1 [Compound 117, 4-[[cyclopentyl-[(5-methyl-2-furyl)methyl]carbamoyl]-amino]benzamide] | – | 1000 to 5000 | – |

| SMILES | IC50 [1] [nM] | IC50 [2, 3] [nM] | IC50 [2] [nM] |
| --- | --- | --- | --- |
| O=C(Nc1ccc(Cl)cc1)N(Cc1ccc2ocnc2c1)C1CCC1 [Compound 232, 1-(1,3-benzoxazol-5-ylmethyl)-3-(4-chlorophenyl)-1-cyclobutyl-urea] | – | < 100 | – |
| O=C(Nc1ccc(F)c(F)c1)N(Cc1ccccc1Cl)C1CCCC1 [Compound 40, 1-[(2-chlorophenyl)methyl]-1-cyclopentyl-3-(3,4-difluorophenyl)urea] | – | 100 to 500 | – |
| CC(=O)c1ccc(NC(=O)N(Cc2cccs2)C2CCCC2)cc1 [Compound 22, 3-(4-acetylphenyl)-1-cyclopentyl-1-(2-thienylmethyl)urea] | – | > 5000 | – |
| Cc1ccc(CN(C(=O)Nc2ccccc2)C2CCCC2)o1 [Compound 176, 1-cyclopentyl-1-[(5-methyl-2-furyl)methyl]-3-phenyl-urea] | – | 100 to 500 | – |
| CN(Cc1cccs1)C(=O)Nc1ccc(Cl)c(Cl)c1 [Compound 200, 3-(3,4-dichlorophenyl)-1-methyl-1-(2-thienylmethyl)urea] | – | 1000 to 5000 | – |
| O=C(Nc1ccccc1)N(Cc1cccnc1)C1CCCC1 [Compound 65, 1-cyclopentyl-3-phenyl-1-(3-pyridylmethyl)urea] | – | 1000 to 5000 | – |
| O=C(Nc1cccs1)N(c1ccccc1)C1CCCC1 [Compound 58, 1-cyclopentyl-1-phenyl-3-(2-thienyl)urea] | – | 1000 to 5000 | – |
| O=C(Nc1ccccc1)N(Cc1cccs1)c1ccc(Cl)cc1 [Compound 196, 1-(4-chlorophenyl)-3-phenyl-1-(2-thienylmethyl)urea] | – | 1000 to 5000 | – |
| Cc1ccc(CN(C(=O)Nc2nnc(-c3cc4ccccc4o3)o2)C2CCCC2)o1 [Compound 151, 3-[5-(benzofuran-2-yl)-1,3,4-oxadiazol-2-yl]-1-cyclopentyl-1-[(5-methyl-2-furyl)methyl]urea] | – | 500 to 1000 | – |
| Cc1ccc(CN(C(=O)Nc2ccc(-c3cn[nH]c3)cc2)C2CCCC2)o1 [Compound 108, 1-cyclopentyl-1-[(5-methyl-2-furyl)methyl]-3-[4-(1H-pyrazol-4-yl)phenyl]urea] | – | 100 to 500 | – |
| COC1CC(N(Cc2ccc(C)o2)C(=O)Nc2ccc(Cl)cc2)C1 (centres unmarked) [Compound 251, 3-(4-chlorophenyl)-1-(3-methoxycyclobutyl)-1-[(5-methyl-2-furyl)methyl]urea] | – | 500 to 1000 | – |
| O=C(NC1CCCCC1)N(Cc1cccs1)C1CCCC1 [Compound 12, 3-cyclohexyl-1-cyclopentyl-1-(2-thienylmethyl) urea] | – | 1000 to 5000 | – |
| CCc1ccc(NC(=O)N(Cc2cnn(C)c2Cl)C2CCCC2)cc1 [Compound 42, 1-[(5-chloro-1-methyl-pyrazol-4-yl)methyl]-1-cyclopentyl-3-(4-ethylphenyl)urea] | – | 100 to 500 | – |
| Cc1oncc1N(Cc1cccc(C(F)(F)F)c1)C(=O)Nc1ccc(C#N)cc1 [Compound 293, 3-(4-cyanophenyl)-1-(5-methylisoxazol-4-yl)-1-[[3-(trifluoromethyl)phenyl]methyl]urea] | – | 100 to 500 | – |
| C#Cc1ccc(NC(=O)N(Cc2ccc(C)o2)C2COC2)cc1 [Compound 236, 3-(4-ethynylphenyl)-1-[(5-methyl-2-furyl)methyl]-1-(oxetan-3-yl)urea] | – | 500 to 1000 | – |
| CCc1ccc(NC(=O)N(Cc2ccc(C)s2)C2CCCC2)cc1 [Compound 25, 1-cyclopentyl-3-(4-ethylphenyl)-1-[(5-methyl-2-thienyl)methyl]urea] | – | 100 to 500 | – |
| Cc1ccc(CN(C(=O)Nc2ccccc2)c2ncco2)o1 [Compound 179, 1-[(5-methyl-2-furyl)methyl]-1-oxazol-2-yl-3-phenyl-urea] | – | > 5000 | – |
| Cc1ccc(CN(C(=O)Nc2ccc(Cl)cc2)c2nonc2C)o1 [Compound 298, 3-(4-chlorophenyl)-1-[(5-methyl-2-furyl)methyl]-1-(4-methyl-1,2,5-oxadiazol-3-yl)urea] | – | < 100 | – |
| CCN(Cc1ccc(C)o1)C(=O)Nc1ccccc1 [Compound 165, 1-ethyl-1-[(5-methyl-2-furyl)methyl]-3-phenyl-urea] | – | 1000 to 5000 | – |
| Cc1ccc(CN(C(=O)Nc2ccc(C#N)cc2)c2cnoc2)o1 [Compound 304, 3-(4-cyanophenyl)-1-isoxazol-4-yl-1-[(5-methyl-2-furyl)methyl]urea] | – | 100 to 500 | – |
